Source: the supplement of paper PMC8882468

Key:
Assay in all cases: CTG-3D luminescence at 96 h relative to day-0 seeding control (ratio to day 0); higher = more growth / less cytotoxicity; PDxO 3D drug screen, 96 h, CTG-3D normalised to day-0 seeding control.
[1] = tested on: HCI-002 (organoid from a triple-negative breast cancer xenograft)
[2] = tested on: HCI-010 (organoid from a breast cancer xenograft)
[3] = tested on: HCI-011.E2 (organoid from an ER-positive breast cancer xenograft)
[4] = tested on: HCI-015 (organoid from a triple-negative breast cancer xenograft)
[5] = tested on: HCI-023 (organoid from a triple-negative breast cancer xenograft)

C[C@@H]1COCCN1c1cc(C2([S@](C)(=N)=O)CC2)nc(-c2cc[nH]c3nccc2-3)n1 [ceralasertib]
CTG-3D luminescence at 96 h
Conditions	12.5 pM	0.00025 µM	0.005 µM	0.1 µM	1 µM	10 µM	100 µM	625 fM
[1], days in culture: 62	2.73	2.51	2.76	3.04	1.81	1.12	0.574	2.93
[1], days in culture: 82	2.71	2.85	2.13	2.4	1.5	0.818	0.274	2.8
[1], days in culture: 91	4.35	3.4	4.02	3.58	2.23	1.3	0.523	4.14
[1], days in culture: 191	2.46	2.89	2.17	2.66	1.91	0.976	0.332	2.6
[1], days in culture: 209	2.37	2.28	1.9	2	1.41	0.743	0.29	2.27
[1], days in culture: 227	6.44	5.73	5.38	5.47	3.08	1.48	0.366	6.05
[2], days in culture: 52	2.13	2.39	2.26	2.04	0.835	0.422	0.238	2.24
[2], days in culture: 65	1.69	1.62	1.85	1.57	0.693	0.3	0.152	1.65
[2], days in culture: 103	3.6	3.3	3.45	3	1.49	0.548	0.325	3.14
[3], days in culture: 74	2.18	2.33	1.97	1.85	1.53	0.982	0.237	1.86
[4], days in culture: 172	2.39	2.46	2.2	1.24	2.01	0.531	0.385	2.27
[4], days in culture: 191	1.99	1.33	1.19	1.08	1.25	0.413	0.258	1.52
[4], days in culture: 218	1.79	1.5	1.72	1.55	1.2	0.408	0.265	1.58
[5], days in culture: 111	1.26	1.25	0.897	1.31	0.756	0.365	0.252	1.5
[5], days in culture: 128	1.69	1.4	1.37	1.51	0.689	0.634	0.38	1.35

[3]
Conditions	CTG-3D luminescence at 96 h
12.5 pM	1.56
0.00025 µM	1.76
0.005 µM	1.56
0.1 µM	1.78
1 µM	1.42
10 µM	1.02
100 µM	0.326
625 fM	1.89

C=CC(=O)N1CCC[C@@H](n2nc(-c3ccc(Oc4ccccc4)cc3)c3c(N)ncnc32)C1 [ibrutinib]
CTG-3D luminescence at 96 h
Conditions	12.5 pM	0.00025 µM	0.005 µM	0.1 µM	1 µM	10 µM	100 µM	625 fM
[1], days in culture: 62	2.83	2.33	2.92	2.77	1.54	1.45	-0.0218	2.97
[1], days in culture: 82	3.16	2.97	2.43	2.38	1.77	1.32	-0.0175	2.68
[1], days in culture: 91	3.98	3.44	3.33	3.61	2.11	1.75	-0.0238	3.98
[1], days in culture: 191	2.76	2.47	2.21	2.23	1.69	1.34	-0.014	2.82
[1], days in culture: 209	2.33	2.16	2.33	1.87	1.63	1	-0.0179	2.34
[1], days in culture: 227	5.2	5.07	4.64	4.59	2.61	2.26	-0.0321	5.19
[2], days in culture: 52	2.16	2.15	2.34	2.35	2.08	1.47	-0.00732	2.5
[2], days in culture: 65	1.67	1.66	1.79	1.73	1.79	0.888	-0.00863	1.69
[2], days in culture: 103	3.5	3.57	3.54	3.41	3.26	1.51	-0.0156	3.23
[3], days in culture: 74	2.44	2.67	1.96	2.48	2.83	2.44	0.00445	2.75
[4], days in culture: 172	2.54	1.92	2.32	1.06	1.37	1.14	7.09e-05	2.36
[4], days in culture: 191	1.91	1.22	1.64	1.03	0.827	0.68	0.00148	1.52
[4], days in culture: 218	1.88	1.37	1.76	1.6	1.4	1.33	0.00244	1.81
[5], days in culture: 111	1.24	1.25	1.32	1.2	1.03	1.02	-0.00294	1.29
[5], days in culture: 128	1.42	1.43	1.55	1.48	1.26	1.03	-0.00478	1.54

[3]
Conditions	CTG-3D luminescence at 96 h
12.5 pM	1.7
0.00025 µM	1.71
0.005 µM	1.45
0.1 µM	2
1 µM	2.1
10 µM	2.03
100 µM	0.00409
625 fM	1.84

CC(=O)O[C@H]1C(=O)[C@@]2(C)[C@H]([C@H](OC(=O)c3ccccc3)[C@]3(O)C[C@H](OC(=O)[C@H](O)[C@@H](NC(=O)c4ccccc4)c4ccccc4)C(C)=C1C3(C)C)[C@]1(OC(C)=O)CO[C@@H]1C[C@@H]2O [paclitaxel]
CTG-3D luminescence at 96 h
Conditions	12.5 pM	0.00025 µM	0.005 µM	0.1 µM	1 µM	10 µM	100 µM	625 fM
[1], days in culture: 62	2.36	2.52	1.34	0.186	0.146	0.236	0.316	2.73
[1], days in culture: 82	3.27	3.2	0.859	0.217	0.193	0.224	0.174	2.8
[1], days in culture: 91	3.82	3.68	1.54	0.26	0.19	0.258	0.36	4.44
[1], days in culture: 191	2.76	2.96	1.17	0.23	0.192	0.252	0.474	2.61
[1], days in culture: 209	2.24	2.21	1.2	0.194	0.195	0.158	0.174	2.26
[1], days in culture: 227	5	5.22	3	0.418	0.279	0.365	0.464	5
[2], days in culture: 52	2.13	2.39	2.24	1.16	1.15	1.12	0.408	2.28
[2], days in culture: 65	1.61	1.57	1.36	1.05	0.898	0.958	0.43	1.64
[2], days in culture: 103	3.62	3.37	3.05	1.41	1.24	1.28	0.858	3.06
[3], days in culture: 74	2.01	2.21	1.82	1.95	1.91	2.73	1.85	2.25
[4], days in culture: 172	1.71	0.614	1.22	0.629	0.689	0.702	0.612	1.2
[4], days in culture: 191	1.87	1.47	1.01	0.626	0.566	0.463	0.334	1.82
[4], days in culture: 218	1.85	1.53	0.801	0.428	0.505	0.46	0.39	1.86
[5], days in culture: 111	1.34	1.27	0.476	0.484	0.433	0.474	0.492	1.58
[5], days in culture: 128	1.36	1.38	0.502	0.609	0.483	0.786	0.605	1.41

[3]
Conditions	CTG-3D luminescence at 96 h
12.5 pM	1.3
0.00025 µM	1.33
0.005 µM	1.09
0.1 µM	1.41
1 µM	1.34
10 µM	1.77
100 µM	1.8
625 fM	1.52

CC1(C)CCC(c2ccc(Cl)cc2)=C(CN2CCN(c3ccc(C(=O)NS(=O)(=O)c4ccc(N[C@H](CCN5CCOCC5)CSc5ccccc5)c(S(=O)(=O)C(F)(F)F)c4)cc3)CC2)C1 [navitoclax]
CTG-3D luminescence at 96 h
Conditions	12.5 pM	0.00025 µM	0.005 µM	0.1 µM	1 µM	10 µM	100 µM	625 fM
[1], days in culture: 62	3.12	2.9	3.78	2.92	2.42	1.07	0.00133	3.47
[1], days in culture: 82	3.88	4.28	2.86	2.91	2.86	1.36	0.00885	3.44
[1], days in culture: 91	3.48	2.91	2.21	2.3	1.97	1.73	0.00844	3.14
[1], days in culture: 191	3.36	3.04	3.27	3.13	2.63	1.29	-0.105	3.4
[1], days in culture: 209	2.83	3.07	2.6	2.13	1.85	1.18	-0.00717	2.97
[1], days in culture: 227	5.11	5.2	4.65	4.75	3.73	3.27	0.0214	5.74
[2], days in culture: 52	2.01	2.27	2.15	0.695	0.0507	0.0304	0.0084	2.13
[2], days in culture: 65	1.61	1.66	1.65	0.573	0.026	0.0135	0.00305	1.8
[2], days in culture: 103	3.2	3.28	3.13	1.08	0.0477	0.0368	0.0191	2.7
[3], days in culture: 74	2.04	2.51	2.16	2.38	2.09	2.86	0.137	1.84
[4], days in culture: 172	2.17	2.01	2.2	1.82	1.99	1.61	0.429	2.6
[4], days in culture: 191	2.56	1.7	2	1.59	1.87	1.01	0.399	1.61
[4], days in culture: 218	1.72	1.53	1.74	1.59	1.64	1.63	-0.117	1.97
[5], days in culture: 111	1.82	1.42	1.19	1.26	0.739	0.432	0.0151	1.83
[5], days in culture: 128	1.58	1.8	1.53	1.82	1.1	0.995	0.00828	1.58

[3]
Conditions	CTG-3D luminescence at 96 h
12.5 pM	1.62
0.00025 µM	1.82
0.005 µM	1.33
0.1 µM	1.72
1 µM	1.52
10 µM	1.84
100 µM	0.144
625 fM	1.8

C/C=C1\NC(=O)[C@H]2CSSCC/C=C/[C@H](CC(=O)N[C@H](C(C)C)C(=O)N2)OC(=O)[C@H](C(C)C)NC1=O [romidepsin]
CTG-3D luminescence at 96 h
Conditions	12.5 pM	0.00025 µM	0.005 µM	0.1 µM	1 µM	10 µM	100 µM	625 fM
[1], days in culture: 62	3.13	2.76	0.0634	-0.0198	-0.0112	-0.0609	-0.0931	3.1
[1], days in culture: 82	3.16	3.38	0.0989	0.0435	0.0464	-0.0117	-0.0289	2.85
[1], days in culture: 91	2.94	2.73	0.0516	0.028	0.0172	0.000373	-0.0143	2.7
[1], days in culture: 191	3.33	3.23	-0.0284	-0.0636	-0.0937	-0.0909	-0.148	3.22
[1], days in culture: 209	2.88	2.68	0.0167	-0.00615	-0.0397	-0.0225	-0.0845	2.84
[1], days in culture: 227	5.16	4.82	0.108	0.0548	0.0335	0.0109	-0.0188	5.69
[2], days in culture: 52	1.97	2.29	1.13	0.189	0.128	0.0169	-0.00333	1.81
[2], days in culture: 65	1.32	1.34	0.941	0.326	0.276	0.0354	-0.00525	1.52
[2], days in culture: 103	2.94	3.14	1.69	0.316	0.226	0.0082	-0.00621	2.77
[3], days in culture: 74	2.09	2.7	1.63	0.493	0.486	0.0744	-0.0129	1.63
[4], days in culture: 172	1.96	1.32	1.05	0.221	0.425	-0.0523	-0.0841	2.7
[4], days in culture: 191	2.51	1.79	0.707	0.312	0.256	0.0321	0.00192	2.21
[4], days in culture: 218	2.09	1.5	0.78	-0.0662	-0.0737	-0.275	-0.342	2.07
[5], days in culture: 111	1.65	1.37	0.46	0.0304	0.0241	-0.00341	-0.0106	1.9
[5], days in culture: 128	1.66	1.55	0.343	0.104	0.0518	0.00597	-0.00382	1.556

[3]
Conditions	CTG-3D luminescence at 96 h
12.5 pM	1.55
0.00025 µM	1.34
0.005 µM	0.559
0.1 µM	0.47
1 µM	0.382
10 µM	0.0141
100 µM	-0.00792
625 fM	0.902
